Several values for one entry are separate records, joined by “and”; a condition that tells them apart may be missing. Equal values may be shown once.
Key:
dogs with signs of BPH [1] = assay: Anti-androgen treatment follow up: serum CPSE level in treated dogs; assay type: in vivo, dog
Procedure: The CPSE concentration in the serum or plasma samples was determined by sandwich ELISA. 96-well microplates (Stripwell Costar/Corning, N.Y., USA) were coated overnight at +4° C. with monoclonal or polyclonal anti-CPSE antibodies, at a concentration of 5 μg/ml in a carbonate buffer at pH 9.6. After 4 washes, the wells were incubated for 1 hour at 37° C. with a saline phosphate buffer at pH 7.2, while adding 5% bovine serum albumin. Finally, the plates were incubated for 30 minutes at room temperature with a saline phosphate buffer at pH 7.2 to which 10% sucrose was added. Once emptied, the microplates were dried overnight under vacuum, and then packaged in the presence of a desiccant until use.
The assay of samples is carried out by dispensing […] of serum or plasma (heparinized plasma or EDTA plasma) into each of the wells. After 1 hour at 37° C., the microplate is washed. 100 μl of monoclonal or polyclonal anti-CPSE antibodies conjugated to peroxidase are dispensed. The wells are incubated for 1 hr at 37° C. and washed again. The antibodies remaining attached to the walls are developed by adding 3,3′,5,5′tetramethyl benzidine. After completion of the reaction, the absorbance is read at 450 nm.
Five dogs with signs of BPH (see inclusion criteria above) were treated with osaterone acetate (YPOZANE®, Virbac). This molecule is an anti-androgen, which acts on the prostatic parenchyma. The CPSE level was measured at days D15 and D0. The dogs were treated as recommended and were given from 0.25-0.5 mg/kg/day of osaterone acetate, for a period of 7 days. Serum was collected prior to any treatment and after 15 days. The CPSE level was measured in the different samples.
Dogs with signs of PBH were treated with osaterone acetate, as recommended by the manufacturer. The serum CPSE level in these dogs was measured before the treatment and after 15 days.

dogs with signs of BPH [2] = assay: Anti-androgen treatment follow up: prostate size by digital rectal examination; assay type: in vivo, dog; settings: all five treated dogs, after treatment

In the case of `CC(=O)O[C@]1(C(C)=O)CC[C@H]2[C@@H]3C=C(Cl)C4=CC(=O)OC[C@]4(C)[C@H]3CC[C@@]21C` [osaterone acetate], the “change in serum CPSE level between before treatment and treatment completed” value (dogs with signs of BPH [1]; five dogs with signs of BPH, D0 vs D15) is reported as “decrease in the serum CPSE level”, the “CPSE (ng/ml), D + 15” value (dogs with signs of BPH [1]; serum, individual Dogs 1-5 with signs of BPH, D+15, 0.25-0.5 mg/kg/day for 7 days) is reported as 15 ng/mL and 21 ng/mL and 40 ng/mL and 10 ng/mL and 36 ng/mL and the “CPSE (ng/ml), Visit 2” value (dogs with signs of BPH [1]; serum, individual dogs C1-C5 with signs of BPH, 15 days after first sampling, 0.25-0.5 mg/kg/day for 7 days) is reported as 15 ng/mL and 21 ng/mL and 40 ng/mL and 10 ng/mL and 36 ng/mL. The “size of the prostate by digital rectal examination” value (dogs with signs of BPH [2]) was “return to a normal size of the prostate”.

— patent publication US20120009593A1, “ANALYSIS METHOD FOR THE IN VITRO DIAGNOSIS OF BENIGN PROSTATIC HYPERPLASIA (BPH) IN DOGS BY ASSAYING CANINE PROSTATE SPECIFIC ESTERASE, AND BPH TREATMENT FOLLOW UP” (VIRBAC SA, priority 2009, published 2012)
